Experimental data taken from publication PMC5524692, “Establishing a yeast-based screening system for discovery of human GLUT5 inhibitors and activators” (Scientific Reports, 2017).
Residue numbers refer to the chain shown, from its start. Read-outs that look alike come from different tables or passages of the source.

Legend:
GLUT5 [1] = target: T1, GLUT5 (Homo sapiens, UniProt P22732, S76I); assay: inhibition of […]-fructose uptake in hxt0 yeast cells expressing GLUT5; assay type: cell-based
T1 construct: gene SLC2A5; GLUT5tr (truncated for the first seven amino acids at the N-terminus)
T1 sequence (P22732 8-501 S76I): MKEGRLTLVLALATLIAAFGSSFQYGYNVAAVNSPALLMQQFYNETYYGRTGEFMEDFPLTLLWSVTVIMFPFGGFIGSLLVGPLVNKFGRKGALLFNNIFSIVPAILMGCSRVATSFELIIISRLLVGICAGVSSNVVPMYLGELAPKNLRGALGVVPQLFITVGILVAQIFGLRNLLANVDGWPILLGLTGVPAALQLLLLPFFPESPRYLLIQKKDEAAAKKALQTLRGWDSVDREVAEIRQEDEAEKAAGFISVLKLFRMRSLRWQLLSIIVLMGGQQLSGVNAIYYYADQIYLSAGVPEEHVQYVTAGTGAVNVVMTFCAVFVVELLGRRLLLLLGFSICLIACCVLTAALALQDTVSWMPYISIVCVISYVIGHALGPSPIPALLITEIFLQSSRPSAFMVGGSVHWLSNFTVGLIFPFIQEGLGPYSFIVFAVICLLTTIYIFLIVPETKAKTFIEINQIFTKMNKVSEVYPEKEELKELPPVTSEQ

GLUT5 [2] = target: T2, GLUT5 (Homo sapiens, UniProt P22732, S72Y); assay: as above; assay type: cell-based
T2 construct: gene SLC2A5; GLUT5tr (truncated for the first seven amino acids at the N-terminus)
T2 sequence (P22732 8-501 S72Y): T1 sequence (P22732 8-501 S76I) with S65Y, I69S

| SMILES | IC50 (GLUT5 [1]; read-out: IC50 of ECG) | IC50 (GLUT5 [2]; read-out: IC50 of ECG) | IC50 (GLUT5 [1]; read-out: IC50 of MSNBA) | IC50 (GLUT5 [2]; read-out: IC50 of MSNBA) |
| --- | --- | --- | --- | --- |
| O=C(O[C@@H]1Cc2c(O)cc(O)cc2O[C@@H]1c1ccc(O)c(O)c1)c1cc(O)c(O)c(O)c1 [ECG, (−)-epicatechin-gallate] | 140 ± 11 µM | 180 ± 11 µM | – | – |
| CS(=O)(=O)c1ccc(Nc2ccc3c(c2)OCO3)c([N+](=O)[O-])c1 [MSNBA, N-[4-(methylsulfonyl)-2-nitrophenyl]-1,3-benzodioxol-5-amine] | – | – | 6.3 ± 0.7 µM | 26.6 ± 6.7 µM |
